Test results reported in ChEMBL document CHEMBL1132726, “Antioxidant activity and xanthine oxidase inhibition activity of reductic acid: ascorbic acid analogue” (Bioorg Med Chem Lett, 2000).

Tests used:
[1] = biological target: T1, Xanthine dehydrogenase/oxidase (Bos taurus, UniProt P80457); assay: Compound was tested for the inhibition of xanthine oxidase; Inactive
[2] = biological target: T1, Xanthine dehydrogenase/oxidase; assay: Compound was tested for the inhibition of xanthine oxidase; Active

T1 sequence (P80457 whole entry): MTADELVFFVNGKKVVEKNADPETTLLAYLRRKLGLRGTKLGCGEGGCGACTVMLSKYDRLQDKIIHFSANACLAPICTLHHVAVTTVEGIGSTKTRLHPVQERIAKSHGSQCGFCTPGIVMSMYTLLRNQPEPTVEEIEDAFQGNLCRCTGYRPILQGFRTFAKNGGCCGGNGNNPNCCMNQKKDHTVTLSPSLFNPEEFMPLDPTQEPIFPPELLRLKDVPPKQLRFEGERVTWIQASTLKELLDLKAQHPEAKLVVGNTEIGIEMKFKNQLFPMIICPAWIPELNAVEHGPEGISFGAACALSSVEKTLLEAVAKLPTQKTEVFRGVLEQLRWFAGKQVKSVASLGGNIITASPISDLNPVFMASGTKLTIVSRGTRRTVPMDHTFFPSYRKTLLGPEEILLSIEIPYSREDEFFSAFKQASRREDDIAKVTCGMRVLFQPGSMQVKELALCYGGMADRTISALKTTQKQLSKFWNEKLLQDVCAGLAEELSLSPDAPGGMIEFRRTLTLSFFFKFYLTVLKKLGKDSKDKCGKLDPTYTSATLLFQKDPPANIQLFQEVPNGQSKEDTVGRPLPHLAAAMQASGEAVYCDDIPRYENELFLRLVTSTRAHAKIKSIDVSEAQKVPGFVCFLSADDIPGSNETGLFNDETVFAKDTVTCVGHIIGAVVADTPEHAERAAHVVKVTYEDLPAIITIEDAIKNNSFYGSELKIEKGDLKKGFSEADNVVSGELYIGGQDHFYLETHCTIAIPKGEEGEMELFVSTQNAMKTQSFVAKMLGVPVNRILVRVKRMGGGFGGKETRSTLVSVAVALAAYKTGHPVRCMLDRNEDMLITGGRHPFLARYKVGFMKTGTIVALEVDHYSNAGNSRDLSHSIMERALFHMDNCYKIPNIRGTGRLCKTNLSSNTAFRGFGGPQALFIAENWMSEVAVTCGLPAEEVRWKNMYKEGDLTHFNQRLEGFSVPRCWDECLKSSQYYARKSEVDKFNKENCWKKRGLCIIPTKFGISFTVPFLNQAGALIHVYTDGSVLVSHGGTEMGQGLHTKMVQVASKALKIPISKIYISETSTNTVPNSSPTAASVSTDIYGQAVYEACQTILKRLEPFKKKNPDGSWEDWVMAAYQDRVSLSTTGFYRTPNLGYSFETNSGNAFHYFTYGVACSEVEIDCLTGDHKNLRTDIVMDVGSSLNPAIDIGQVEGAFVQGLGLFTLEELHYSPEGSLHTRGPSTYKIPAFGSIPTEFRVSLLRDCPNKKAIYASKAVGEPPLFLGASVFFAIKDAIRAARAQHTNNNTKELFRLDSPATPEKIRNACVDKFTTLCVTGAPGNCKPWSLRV

O=C1COC(O)=C1O
Activity [1]: Not Active

O=C1O[C@H]([C@@H](O)CO)C(O)=C1O [ASCORBIC ACID]
Activity [1]: Not Active

O=C1CCC(O)=C1O
Activity [2]: Active
